The record followed here is ChEMBL document CHEMBL3627608, “Crystal structures of human RIP2 kinase catalytic domain complexed with ATP-competitive inhibitors: Foundations for understanding inhibitor selectivity” (Bioorg Med Chem, 2015).

Assay [1] addresses Cyclin-dependent kinase 7/ cyclin H (Homo sapiens) (UniProt P51946+P50613). The experiment in a line: Inhibition of CDK7/cyclin H (unknown origin) at 10 uM after 120 mins P33 radiolabeled kinase activity assay. The class given is protein-complex assay.
Assay [2] concerns the target Mitogen-activated protein kinase kinase kinase kinase 5 (Homo sapiens) (UniProt Q9Y4K4). The experiment in a line: Inhibition of KHS (unknown origin) at 10 uM after 120 mins P33 radiolabeled kinase activity assay.
Assay [3] concerns the target T1, Tyrosine-protein kinase ZAP-70 (Homo sapiens) (UniProt P43403).
T1 sequence (whole entry): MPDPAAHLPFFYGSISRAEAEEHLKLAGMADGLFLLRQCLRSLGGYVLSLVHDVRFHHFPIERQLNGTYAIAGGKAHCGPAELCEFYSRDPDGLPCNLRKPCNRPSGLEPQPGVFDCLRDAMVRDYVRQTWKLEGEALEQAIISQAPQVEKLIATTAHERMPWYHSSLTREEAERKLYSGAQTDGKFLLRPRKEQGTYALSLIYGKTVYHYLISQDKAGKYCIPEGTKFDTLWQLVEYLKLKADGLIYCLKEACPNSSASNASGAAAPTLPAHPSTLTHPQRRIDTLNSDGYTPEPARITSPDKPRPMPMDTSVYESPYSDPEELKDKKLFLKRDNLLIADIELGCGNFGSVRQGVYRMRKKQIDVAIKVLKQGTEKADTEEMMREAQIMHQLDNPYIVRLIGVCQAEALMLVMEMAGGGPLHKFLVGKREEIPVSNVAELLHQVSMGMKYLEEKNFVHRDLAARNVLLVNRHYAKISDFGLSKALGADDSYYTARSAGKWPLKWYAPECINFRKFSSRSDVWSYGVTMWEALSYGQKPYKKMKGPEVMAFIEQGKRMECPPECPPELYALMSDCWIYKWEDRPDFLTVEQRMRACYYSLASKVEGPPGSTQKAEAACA
The experiment in a line: Inhibition of ZAP70 (unknown origin) at 10 uM after 120 mins P33 radiolabeled kinase activity assay.

For assay [4], the target named is Cyclin-dependent kinase 4/cyclin D1 (Homo sapiens) (UniProt P11802+P24385). The experiment in a line: Inhibition of CDK4/cyclin D1 (unknown origin) at 10 uM after 120 mins P33 radiolabeled kinase activity assay. In kind it is protein-complex assay.
For assay [5], the target named is Serine/threonine-protein kinase 38-like (Homo sapiens) (UniProt Q9Y2H1). The experiment in a line: Inhibition of STK38L (unknown origin) at 10 uM after 120 mins P33 radiolabeled kinase activity assay.
Assay [6] has as its target Proto-oncogene tyrosine-protein kinase Src (Homo sapiens) (UniProt P12931). The experiment in a line: Inhibition of c-Src (unknown origin) at 10 uM after 120 mins P33 radiolabeled kinase activity assay.
The target in assay [7] is CDK2/Cyclin A1 (Homo sapiens) (UniProt P24941+P78396). The experiment in a line: Inhibition of CDK2/Cyclin A1 (unknown origin) at 10 uM after 120 mins P33 radiolabeled kinase activity assay. The class given is protein-complex assay.
Assay [8] has as its target Proto-oncogene tyrosine-protein kinase ROS (Homo sapiens) (UniProt P08922). The experiment in a line: Inhibition of ROS (unknown origin) at 10 uM after 120 mins P33 radiolabeled kinase activity assay.
Assay [9] has as its target Calcium/calmodulin-dependent protein kinase type 1B (Homo sapiens) (UniProt Q6P2M8). Description: Inhibition of CAMK1beta (unknown origin) at 10 uM after 120 mins P33 radiolabeled kinase activity assay.
Assay [10] addresses T2, Beta-adrenergic receptor kinase 1 (Homo sapiens) (UniProt P25098).
T2 sequence (whole entry): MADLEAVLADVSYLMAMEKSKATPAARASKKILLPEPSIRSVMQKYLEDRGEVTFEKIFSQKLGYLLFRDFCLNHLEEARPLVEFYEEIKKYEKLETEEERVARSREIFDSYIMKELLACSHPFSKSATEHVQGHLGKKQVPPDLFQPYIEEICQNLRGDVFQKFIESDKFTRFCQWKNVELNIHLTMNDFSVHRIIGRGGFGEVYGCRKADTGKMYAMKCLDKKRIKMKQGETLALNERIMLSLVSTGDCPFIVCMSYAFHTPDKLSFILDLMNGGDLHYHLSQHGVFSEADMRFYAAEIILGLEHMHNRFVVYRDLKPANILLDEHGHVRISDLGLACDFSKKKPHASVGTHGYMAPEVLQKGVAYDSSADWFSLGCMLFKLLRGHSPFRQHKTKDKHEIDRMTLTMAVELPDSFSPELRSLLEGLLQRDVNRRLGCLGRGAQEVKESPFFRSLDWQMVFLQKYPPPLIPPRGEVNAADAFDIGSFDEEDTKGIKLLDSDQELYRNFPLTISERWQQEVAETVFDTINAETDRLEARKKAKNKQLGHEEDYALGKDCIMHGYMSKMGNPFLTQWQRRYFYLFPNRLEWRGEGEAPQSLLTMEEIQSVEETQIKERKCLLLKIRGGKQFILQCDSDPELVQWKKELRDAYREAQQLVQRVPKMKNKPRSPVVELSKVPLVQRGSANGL
The experiment in a line: Inhibition of GRK2 (unknown origin) at 10 uM after 120 mins P33 radiolabeled kinase activity assay.

Assay [11] has as its target Serine/threonine-protein kinase PLK1 (Homo sapiens) (UniProt P53350). Description: Inhibition of PLK1 (unknown origin) at 10 uM after 120 mins P33 radiolabeled kinase activity assay.
In assay [12] the target is T3, G protein-coupled receptor kinase 3 (Homo sapiens) (UniProt P35626).
T3 sequence (whole entry): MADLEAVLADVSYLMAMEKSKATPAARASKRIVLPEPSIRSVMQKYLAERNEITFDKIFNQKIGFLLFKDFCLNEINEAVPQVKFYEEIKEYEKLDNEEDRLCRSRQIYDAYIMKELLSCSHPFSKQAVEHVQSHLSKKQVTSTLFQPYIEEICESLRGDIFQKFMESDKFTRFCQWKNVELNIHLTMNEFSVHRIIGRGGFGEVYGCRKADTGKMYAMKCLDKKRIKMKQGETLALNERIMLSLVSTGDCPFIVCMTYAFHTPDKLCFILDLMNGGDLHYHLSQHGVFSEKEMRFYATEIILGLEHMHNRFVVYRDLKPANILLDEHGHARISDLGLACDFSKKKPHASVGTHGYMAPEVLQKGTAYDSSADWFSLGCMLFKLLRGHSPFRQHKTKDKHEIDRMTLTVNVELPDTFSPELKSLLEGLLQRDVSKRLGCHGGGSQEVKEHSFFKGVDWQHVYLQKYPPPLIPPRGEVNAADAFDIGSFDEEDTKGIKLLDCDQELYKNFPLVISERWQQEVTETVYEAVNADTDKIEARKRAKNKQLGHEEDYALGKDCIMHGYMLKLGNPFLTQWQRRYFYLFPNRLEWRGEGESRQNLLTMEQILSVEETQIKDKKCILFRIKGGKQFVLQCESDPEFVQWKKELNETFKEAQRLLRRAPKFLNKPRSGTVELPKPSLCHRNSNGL
The experiment in a line: Inhibition of GRK3 (unknown origin) at 10 uM after 120 mins P33 radiolabeled kinase activity assay.

In assay [13] the target is Tyrosine-protein kinase CSK (Homo sapiens) (UniProt P41240). The experiment in a line: Inhibition of CSK (unknown origin) at 10 uM after 120 mins P33 radiolabeled kinase activity assay.
Chain of Tyrosine-protein kinase CSK (Homo sapiens) (P41240 2-450 limits assumed): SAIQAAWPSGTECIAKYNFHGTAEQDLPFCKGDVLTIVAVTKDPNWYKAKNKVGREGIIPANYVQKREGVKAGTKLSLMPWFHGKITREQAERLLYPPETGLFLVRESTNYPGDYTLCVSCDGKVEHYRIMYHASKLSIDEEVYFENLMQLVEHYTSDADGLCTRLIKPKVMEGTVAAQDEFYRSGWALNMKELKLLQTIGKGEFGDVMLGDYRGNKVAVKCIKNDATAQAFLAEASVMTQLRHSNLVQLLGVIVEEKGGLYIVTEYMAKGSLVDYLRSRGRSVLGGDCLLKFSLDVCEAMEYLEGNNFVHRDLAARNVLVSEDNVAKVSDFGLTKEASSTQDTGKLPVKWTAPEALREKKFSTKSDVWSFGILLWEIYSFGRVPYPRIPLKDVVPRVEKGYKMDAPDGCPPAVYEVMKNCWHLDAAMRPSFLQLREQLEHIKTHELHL

Chain of Proto-oncogene tyrosine-protein kinase Src (Homo sapiens) (P12931 2-536 limits assumed): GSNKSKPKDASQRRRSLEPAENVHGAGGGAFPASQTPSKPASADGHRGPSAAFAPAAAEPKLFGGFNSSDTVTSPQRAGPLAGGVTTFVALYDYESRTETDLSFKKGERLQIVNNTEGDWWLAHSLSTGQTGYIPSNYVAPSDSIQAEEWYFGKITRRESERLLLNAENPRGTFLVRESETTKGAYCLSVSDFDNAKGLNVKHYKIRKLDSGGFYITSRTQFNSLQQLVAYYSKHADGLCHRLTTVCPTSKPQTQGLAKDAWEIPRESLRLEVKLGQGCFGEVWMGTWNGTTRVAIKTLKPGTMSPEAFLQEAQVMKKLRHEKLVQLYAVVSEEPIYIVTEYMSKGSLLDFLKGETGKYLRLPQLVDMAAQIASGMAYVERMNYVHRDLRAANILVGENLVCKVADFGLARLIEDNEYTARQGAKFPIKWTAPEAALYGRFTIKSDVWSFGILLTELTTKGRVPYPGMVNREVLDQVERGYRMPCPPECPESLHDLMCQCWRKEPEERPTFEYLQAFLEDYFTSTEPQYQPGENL
Chain of Mitogen-activated protein kinase kinase kinase kinase 5 (Homo sapiens) (Q9Y4K4 whole entry, looked up): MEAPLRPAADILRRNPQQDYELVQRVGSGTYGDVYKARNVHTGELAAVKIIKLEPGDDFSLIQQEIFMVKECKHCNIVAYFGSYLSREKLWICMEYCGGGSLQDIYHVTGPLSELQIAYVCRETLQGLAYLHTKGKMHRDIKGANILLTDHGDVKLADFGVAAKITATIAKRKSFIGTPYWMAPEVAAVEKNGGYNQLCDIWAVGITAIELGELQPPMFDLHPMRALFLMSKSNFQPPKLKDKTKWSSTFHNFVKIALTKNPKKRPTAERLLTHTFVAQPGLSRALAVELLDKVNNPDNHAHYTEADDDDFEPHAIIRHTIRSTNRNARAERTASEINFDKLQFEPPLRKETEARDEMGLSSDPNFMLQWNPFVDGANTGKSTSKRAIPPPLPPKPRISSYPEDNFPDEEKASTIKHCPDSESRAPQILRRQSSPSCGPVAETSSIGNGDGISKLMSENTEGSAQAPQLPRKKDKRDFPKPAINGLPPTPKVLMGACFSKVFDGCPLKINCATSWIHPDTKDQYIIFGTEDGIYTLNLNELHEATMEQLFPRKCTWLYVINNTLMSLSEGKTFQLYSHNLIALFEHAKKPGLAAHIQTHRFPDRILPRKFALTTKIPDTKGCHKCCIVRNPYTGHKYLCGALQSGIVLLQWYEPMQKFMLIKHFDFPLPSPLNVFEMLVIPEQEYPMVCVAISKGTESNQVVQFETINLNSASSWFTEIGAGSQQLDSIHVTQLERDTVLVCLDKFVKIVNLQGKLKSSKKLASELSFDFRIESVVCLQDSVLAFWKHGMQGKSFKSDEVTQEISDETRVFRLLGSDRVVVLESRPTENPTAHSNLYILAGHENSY
Chain of Proto-oncogene tyrosine-protein kinase ROS (Homo sapiens) (P08922 whole entry): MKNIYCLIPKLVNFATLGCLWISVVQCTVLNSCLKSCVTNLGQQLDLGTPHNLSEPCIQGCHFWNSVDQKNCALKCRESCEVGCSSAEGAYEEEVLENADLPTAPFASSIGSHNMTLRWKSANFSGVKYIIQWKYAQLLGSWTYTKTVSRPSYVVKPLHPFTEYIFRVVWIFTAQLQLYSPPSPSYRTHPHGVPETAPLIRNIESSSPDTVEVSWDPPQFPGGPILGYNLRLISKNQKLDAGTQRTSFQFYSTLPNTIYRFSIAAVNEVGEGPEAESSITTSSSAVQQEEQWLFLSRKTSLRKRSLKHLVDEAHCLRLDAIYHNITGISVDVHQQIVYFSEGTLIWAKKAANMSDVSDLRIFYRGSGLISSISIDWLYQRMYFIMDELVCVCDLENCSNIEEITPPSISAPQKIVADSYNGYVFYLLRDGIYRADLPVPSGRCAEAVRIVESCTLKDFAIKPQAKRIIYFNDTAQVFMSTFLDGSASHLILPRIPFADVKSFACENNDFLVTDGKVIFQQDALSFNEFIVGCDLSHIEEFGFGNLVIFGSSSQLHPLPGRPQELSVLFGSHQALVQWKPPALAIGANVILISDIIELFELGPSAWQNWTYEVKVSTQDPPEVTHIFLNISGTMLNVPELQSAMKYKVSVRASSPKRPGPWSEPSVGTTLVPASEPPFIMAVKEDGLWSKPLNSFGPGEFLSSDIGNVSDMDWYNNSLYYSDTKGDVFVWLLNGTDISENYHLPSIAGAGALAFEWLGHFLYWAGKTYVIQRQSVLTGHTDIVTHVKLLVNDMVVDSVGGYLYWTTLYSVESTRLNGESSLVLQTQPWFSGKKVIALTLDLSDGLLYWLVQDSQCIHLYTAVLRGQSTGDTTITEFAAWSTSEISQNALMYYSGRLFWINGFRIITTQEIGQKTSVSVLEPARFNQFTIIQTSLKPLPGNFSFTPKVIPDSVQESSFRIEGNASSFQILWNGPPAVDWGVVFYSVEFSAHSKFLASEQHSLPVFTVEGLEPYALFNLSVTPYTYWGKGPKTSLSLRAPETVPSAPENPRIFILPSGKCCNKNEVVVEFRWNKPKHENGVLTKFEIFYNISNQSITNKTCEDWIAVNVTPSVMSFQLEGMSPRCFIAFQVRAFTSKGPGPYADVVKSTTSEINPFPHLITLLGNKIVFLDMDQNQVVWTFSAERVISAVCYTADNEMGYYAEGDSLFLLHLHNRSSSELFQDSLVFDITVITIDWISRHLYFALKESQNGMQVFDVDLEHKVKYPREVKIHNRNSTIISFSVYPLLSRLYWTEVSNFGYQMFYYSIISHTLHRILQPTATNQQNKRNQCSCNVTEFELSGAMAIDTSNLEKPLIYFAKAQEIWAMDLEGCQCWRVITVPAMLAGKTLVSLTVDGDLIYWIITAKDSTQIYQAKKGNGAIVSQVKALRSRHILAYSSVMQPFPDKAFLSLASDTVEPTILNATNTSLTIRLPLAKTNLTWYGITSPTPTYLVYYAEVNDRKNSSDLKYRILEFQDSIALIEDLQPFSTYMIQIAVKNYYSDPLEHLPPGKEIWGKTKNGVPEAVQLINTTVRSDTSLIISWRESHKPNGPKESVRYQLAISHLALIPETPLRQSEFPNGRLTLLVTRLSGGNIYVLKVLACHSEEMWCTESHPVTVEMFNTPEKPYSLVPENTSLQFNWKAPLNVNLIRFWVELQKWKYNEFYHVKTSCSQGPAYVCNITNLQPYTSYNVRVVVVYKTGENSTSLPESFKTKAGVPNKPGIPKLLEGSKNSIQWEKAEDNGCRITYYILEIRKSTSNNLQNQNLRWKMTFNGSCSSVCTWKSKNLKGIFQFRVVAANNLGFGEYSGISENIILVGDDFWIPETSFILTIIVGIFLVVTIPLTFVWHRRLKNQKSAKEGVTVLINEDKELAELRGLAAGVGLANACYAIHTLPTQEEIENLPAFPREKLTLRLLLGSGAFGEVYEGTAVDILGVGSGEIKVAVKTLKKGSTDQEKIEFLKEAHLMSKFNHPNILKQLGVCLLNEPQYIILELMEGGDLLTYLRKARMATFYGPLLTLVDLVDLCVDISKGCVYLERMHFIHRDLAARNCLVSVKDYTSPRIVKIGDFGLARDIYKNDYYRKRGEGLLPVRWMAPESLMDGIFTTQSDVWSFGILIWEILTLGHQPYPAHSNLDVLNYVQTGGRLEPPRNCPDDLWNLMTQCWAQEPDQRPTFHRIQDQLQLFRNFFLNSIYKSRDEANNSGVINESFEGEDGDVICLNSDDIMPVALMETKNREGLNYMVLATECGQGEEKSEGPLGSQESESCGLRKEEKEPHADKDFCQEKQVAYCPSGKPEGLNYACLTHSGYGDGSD
Chain of Serine/threonine-protein kinase PLK1 (Homo sapiens) (P53350 whole entry): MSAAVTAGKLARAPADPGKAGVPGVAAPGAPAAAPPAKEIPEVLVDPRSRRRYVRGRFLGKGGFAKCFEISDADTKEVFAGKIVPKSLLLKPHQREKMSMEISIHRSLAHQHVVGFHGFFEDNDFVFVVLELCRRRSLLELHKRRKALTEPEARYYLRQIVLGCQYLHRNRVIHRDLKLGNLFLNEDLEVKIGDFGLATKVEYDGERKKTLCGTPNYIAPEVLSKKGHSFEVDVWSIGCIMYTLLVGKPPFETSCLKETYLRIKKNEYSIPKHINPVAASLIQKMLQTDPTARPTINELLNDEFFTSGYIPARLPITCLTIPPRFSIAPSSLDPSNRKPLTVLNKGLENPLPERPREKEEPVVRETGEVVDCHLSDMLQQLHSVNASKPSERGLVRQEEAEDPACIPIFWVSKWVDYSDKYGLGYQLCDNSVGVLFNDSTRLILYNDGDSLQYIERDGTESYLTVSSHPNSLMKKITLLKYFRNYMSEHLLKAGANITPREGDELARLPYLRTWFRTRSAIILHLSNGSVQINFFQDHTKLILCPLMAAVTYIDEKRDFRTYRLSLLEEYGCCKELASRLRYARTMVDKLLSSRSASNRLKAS

Usually inhibition stands for the drop in the measured response relative to a control, in per cent. Take `COCCNC(=O)c1ccc2c(c1)nc(-c1cnc(-c3ccc(Cl)cc3)[nH]1)n2CCOC`: the inhibition in assay [1] is 2.11%; in assay [2], 33.6%; in [3], 0.28%; in assay [4], -1.3%; in assay [5], 7.36%; in assay [6], 81.1%. The inhibition in assay [7] is 18.1%; in [8] it was 27.9%; in assay [9], 2.47%; in [10], 2.91%; in assay [11] it was -0.52%; in assay [12], -0.61%. The inhibition in assay [13] came out at 15.6%.

Regarding `CC(C)(C)c1cc(NC(=O)Nc2ccc(Oc3ccncc3)cc2)no1`, the inhibition in assay [1] was 0.59%; in assay [2], 90%; in assay [3] it was -5.86%; in assay [4], 43%; in assay [5] it was 33.7%; in assay [6], 85.8%. The inhibition in assay [7] was 51.4%; in assay [8], 88.7%; in [9], 9.84%; in [10], 2.3%; in assay [11] it was 1.09%; in [12], -2.07%. Moreover, the inhibition in assay [13] was 78.4%.

As to `CS(=O)(=O)c1cccc(Nc2nccc(-c3sc(N4CCOCC4)nc3-c3cccc(NS(=O)(=O)c4c(F)cccc4F)c3)n2)c1`, the inhibition in assay [1] is 16.1%; in assay [2], 93.5%; in [3], -0.68%; in assay [4] it was 74.5%; in assay [5] it was 22.4%; in assay [6], 99.1%. Further, the inhibition in assay [7] was 43.5%; in assay [8], 63.8%; in assay [9], 46.8%; in assay [10] it was 4.42%; in assay [11], 5.27%; in assay [12], -3.43%. Moreover, the inhibition in assay [13] was 100%.
